Results taken from patent publication US6784173B2, “Aromatic dicarboxylic acid derivatives” (Hoffmann-La Roche Inc., priority 2001, dated 2004).
pIC50: −log10 of the molar value.

test system: HT-29 cells (human colon carcinoma cell line); assay: MTT tetrazolium dye proliferation assay on HT-29 cells; type: cell-based; conditions: MTT assay after 5 days of compound exposure, 30 uM to 1.5 nM, read-out: IC50 HT29
Description: MTT (tetrazolium dye proliferation assay) is widely used for the quantitative determination of cytotoxic effects or in vitro chemosensitivity of tumor cells. The assay is based on the cleavage of the yellow tetrazolium salt MTT to purple formazan crystals by metabolic active cells. For details, see Rubinstein, L. V., et al., J. Natl. Cancer Inst. 82 (1990) 1113-1118.
The following procedure was performed: HT-29 cells (human colon carcinoma cell line) were cultivated in RPMI 1640, 2.5% FCS, 2 mM Glutamine, 100 u/ml Penicillin, 100 ug/ml Streptomycin. For the assay the cells were seeded in 384 well plates, 900 cells per well, in the same medium The next day compounds (dissolved 10 mM in DMSO) were added in various concentrations ranging from 30 uM to 1.5 nM. After 5 days the MTT assay was done mainly according to the instructions of the manufacturer (Cell proliferation kit I, MTT, form Roche Molecular Biochemicals). In brief: MTT labeling reagent was added to a final concentration of 0.5 mg/ml, added and incubated for 4 hrs at 37 C., 5% CO2. During this incubation time purple formazan crystals are formed. After addition of the solubilization solution (20% SDS in 0.02 M HCl) the plates were incubated overnight at 37 C, 5% CO2. After careful mixing plates were measured in Victor 2 (scanning multiwell spectrophotometer, Wallac) at 550 nm.
A decrease in number of living cells results in a decrease in the total metabolic activity in the sample. The decrease directly correlates to the amount of purple colour resulting from the solubilization of the purple formazan crystals. Determination of IC50 was done using XL-fit.

`O=C(NO)c1ccc(C(=O)NCc2ccc(C(F)(F)F)cc2)s1` [Example 2, Thiophene-2,5-dicarboxylic acid 2-hydroxyamide 5-(4-trifluoromethyl-benzylamide)] was tested. Which pIC50 did it give?
The pIC50 was 6.96.

`CC(C)CCCC(C)NC(=O)c1ccc(C(=O)NO)s1` (centres unmarked) [Example 15, No. 81, thiophene-2,5-dicarboxylic acid 2-[(1,5-dimethyl-hexyl)-amide] 5-hydroxyamide] was tested. Which pIC50 did it give?
Its pIC50 is 7.52.

With `CC(CCc1ccccc1)NC(=O)c1ccc(C(=O)NO)s1` (centres unmarked) [Example 15, No. 128, Thiophene-2,5-dicarboxylic acid 2-hydroxyamide 5-[(1-methyl-3-phenyl-propyl)-amide]] as the molecule, how does the pIC50 read?
Its pIC50 is 7.70.

With `O=C(NO)c1ccc(C(=O)NCCOc2ccccc2)s1` [Example 15, No. 104, Thiophene-2,5-dicarboxylic acid 2-hydroxyamide 5-[(2-phenoxy-ethyl)-amide]] as the molecule, how does the pIC50 read?
Its pIC50 is 7.40.

`O=C(NO)c1ccc(C(=O)NCCC(c2ccccc2)c2ccccc2)s1` [Example 15, No. 90, thiophene-2,5-dicarboxylic acid 2-[(3,3-diphenyl-propyl)-amide] 5-hydroxyamide] was tested. Which pIC50 did it give?
Its pIC50 is 6.85.

`O=C(NO)c1ccc(C(=O)NCc2cccc(Br)c2)s1` [Example 15, No. 94, Thiophene-2,5-dicarboxylic acid 2-(3-bromo-benzylamide) 5-hydroxyamide] was tested. Which pIC50 did it give?
Its pIC50 is 7.15.

With `Cc1cc(C)cc(CNC(=O)c2ccc(C(=O)NO)s2)c1` [Example 5, Thiophene-2,5-dicarboxylic acid 2-(3,5-dimethyl-benzylamide) 5-hydroxyamide] as the molecule, how does the pIC50 read?
The pIC50 was 7.30.

With `O=C(NO)c1ccc(C(=O)NCc2cccc(Cl)c2)s1` [Example 4, Thiophene-2,5-dicarboxylic acid 2-(3-chloro-benzylamide) 5-hydroxyamide] as the molecule, how does the pIC50 read?
The pIC50 was 6.85.

How did the pIC50 turn out when `O=C(NO)c1ccc(C(=O)NCc2cc(C(F)(F)F)cc(C(F)(F)F)c2)s1` [Example 15, No. 93, Thiophene-2,5-dicarboxylic acid 2-(3,5-bis-trifluoromethyl-benzylamide) 5-hydroxyamide] was run?
The pIC50 was 7.30.

`CC(C)(C)c1ccc(CNC(=O)c2ccc(C(=O)NO)s2)cc1` [Example 15, No. 98, Thiophene-2,5-dicarboxylic acid 2-(4-tert-butyl-benzylamide) 5-hydroxyamide] was tested. Which pIC50 did it give?
The pIC50 was 7.15.

With `O=C(NO)c1ccc(C(=O)NCc2ccc(Cl)c(Cl)c2)s1` [Example 15, No. 139, Thiophene-2,5-dicarboxylic acid 2-(3,4-dichloro-benzylamide) 5-hydroxyamide] as the molecule, how does the pIC50 read?
Its pIC50 is 6.77.
